Source: patent US11712404B2 (priority 2018, dated 2023)

Experiments:
[1] = at 30° C. and 1 Hz; cited from earlier work
[2] = Water sorption and solubility (ISO 4049); type: physicochemical; conditions: for water sorption: one week in water
Experimental: The same samples used in the polymerization kinetics test were stored dry at room temperature for 24 hs, then used for the water sorption (WS) and solubility (SL) test, according to ISO 4049 (REF). The initial mass (M1) was recorded and the volume calculated following the equation: V=h×πr^2 where h (mm) is the sample height and r (mm) is the sample radius.
Each sample was placed in a tight-close glass vial with 5 glass beads on the bottom to ensure the whole surface of the sample was exposed to water, and then the vial was filled by 5 ml of double-distilled water and kept closed for one week. The samples were then removed from water, patted dry and weighed again (M2) and placed in a desiccator until mass stabilization (M3) was observed. Water sorption (WS) and solubility (SL) were calculated according to the equations:
[formula] and the results were converted into […], where V is the volume of the specimen. Dentin Microtensile Bond Strength
The same samples used in the polymerization kinetics were tested for water sorption and solubility, according to [25]. Briefly, the mass of the disks was determined before (m1) and after immersion in distilled water for one week (m2). The disks were then stored in a desiccator until the mass stabilized (m3), which took around one week. Water sorption (WS) and solubility (SL) were calculated using the following equations:
[formula] where V is the volume of the specimen. 2.4 Microtensile bond strength

[3] = molecular target: T1, matrix metalloproteinase 2 (MMP-2) (Homo sapiens, UniProt P08253); test: MMP-2 incubation, fluorometric assay; type: biochemical; conditions: 0.02 mM monomer, 24 hours at 37° C., fluorescence Ex/Em=490/525 nm
T1 sequence (P08253 110-660): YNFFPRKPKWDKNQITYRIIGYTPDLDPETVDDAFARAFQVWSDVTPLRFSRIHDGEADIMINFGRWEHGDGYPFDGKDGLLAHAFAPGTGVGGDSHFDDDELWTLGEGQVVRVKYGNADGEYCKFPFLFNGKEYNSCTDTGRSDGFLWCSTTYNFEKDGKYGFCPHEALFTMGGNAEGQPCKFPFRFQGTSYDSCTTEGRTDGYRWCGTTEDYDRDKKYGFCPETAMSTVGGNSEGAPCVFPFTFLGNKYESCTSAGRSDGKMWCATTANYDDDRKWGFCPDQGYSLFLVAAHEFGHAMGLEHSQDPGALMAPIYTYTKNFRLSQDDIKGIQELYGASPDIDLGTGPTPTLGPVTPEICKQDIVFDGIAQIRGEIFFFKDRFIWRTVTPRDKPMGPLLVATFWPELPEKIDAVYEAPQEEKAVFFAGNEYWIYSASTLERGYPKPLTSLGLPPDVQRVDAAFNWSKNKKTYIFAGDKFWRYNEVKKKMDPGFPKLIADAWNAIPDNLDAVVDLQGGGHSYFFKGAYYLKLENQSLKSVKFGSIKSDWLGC
Experimental: MMP-2 incubation was prepared at 0.02 mM monomer concentration and incubated at 24 hours at 37° C. and degradation from MMP was measured via a fluorometric assay utilizing a plate reader.
BB94 is a commercial, known inhibitor of MMP-2. Plate reader fluorescence was set at Ex/Em=490/525 nm. Lower fluorescence signal indicates enzyme inhibition. Initial study indicate HEMA and HEMAM inhibition of MMP-2.

[4] = Monomer degradation in low pH environment (1H NMR); conditions: neat monomer, 30 days
[5] = Neat monomer incubation in water, remaining monomer by HPLC; conditions: neat compound incubated in water
Experimental: (§1) Monomers were prepared to a concentration of 0.15 mM for water and CE/PCE incubations and incubated at 72 hours at 37° C.
(§2) Degradation from CE and PCE was monitored via high performance liquid chromatography (HPLC) and measured via initial and post incubation monomer area difference.
(§3) This was calculated in the decrease in absorbance area measured by HPLC at 227 nm wavelength. Degradation was further verified by the detection of methacrylic acid.

[6] = system: cholinesterase (CE) and pseudocholinesterase (PCE); test: Neat monomer incubation with cholinesterase / pseudocholinesterase, HPLC; conditions: neat compound in the presence of cholinesterase
Experimental: as §1, §2, §3

For `C=C(C)C(=O)OCC(O)COc1ccc(C(C)(C)c2ccc(OCC(O)COC(=O)C(=C)C)cc2)cc1` (stereo not shown) [BisGMA, Bisphenol A glycerolate dimethacrylate], which initial viscosity [1] is on record?
The initial viscosity was 1369 Pa·s.

Which solubility ([2]; BisGMA co-polymerization) does the source give for `C=CC(=O)N(C)C` [DMAM, N.N-Dimethylacrylamide] here?
The solubility was 52.3 μg/mm3.

And the solubility ([2]; UDMA co-polymerization)?
The solubility was 44.3 μg/mm3.

What about the water sorption ([2]; UDMA mixtures) of the same compound?
The water sorption was 224.7 μg/mm3.

For `C=CC(=O)N(C)CCO` [HEM, N-(2-hydroxyethyl)-N-methylacrylamide], which water sorption ([2]; BisGMA co-polymerizations) is on record?
The water sorption was 38.7 μg/mm3.

And the water sorption ([2]; UDMA mixtures)?
The water sorption was 203.5 μg/mm3.

Which results are given for `C=C(C)C(=O)OCCO` [HEMA, 2-Hydroxyethyl methacrylate]?
water sorption ([2]; UDMA mixtures): 102.8 μg/mm3; inhibition of MMP-2 [3]: inhibition; degradation ([4]; pH 1, 37° C.): 69.0 (2.3) %; degradation ([4]; pH 2, 37° C.): 10.5 (0.7) %; degradation under aqueous conditions [5]: 8%; degraded monomers under enzymatic conditions [6]: 52%

What does the source list for `C=C(C)C(=O)NCCO` [HEMAM, N-Hydroxyethyl methacrylamide]?
inhibition of MMP-2 [3]: inhibition; degradation ([4]; pH 1, 37° C.): 6.0 (0) %; degradation ([4]; pH 2, 37° C.): did not show any significant amount of degradation products

Which water sorption ([2]; UDMA mixtures) does the source give for `C=C(C)C(=O)NC(CC)CO` (stereo not shown) [Monomer 2EM, N-(1-hydroxybutan-2-yl)methacrylamide] here?
Its water sorption is 102.7 μg/mm3.

What about the “degradation under aqueous conditions” value [5] of the same compound?
The value was “virtually no degradation”.

And the “degraded monomers under enzymatic conditions” value [6]?
The value was 22%.

For `C=C(C)C(=O)NC(C)(C)CO` [Monomer 2dMM, N-(1-hydroxy-2-methylpropan-2-yl)methacrylamide], which water sorption ([2]; UDMA mixtures) is on record?
Its water sorption is 102.7 μg/mm3.

What about the “degradation under aqueous conditions” value [5] of the same compound?
Its value is “virtually no degradation”.

What about the “degraded monomers under enzymatic conditions” value [6] of the same compound?
Its value is 8%.

Which initial viscosity [1] does the source give for `C=C(C)C(=O)OCCOC(=O)NCCC(C)CC(C)(C)CNC(=O)OCCOC(=O)C(=C)C` (stereo not shown) [UDMA, urethane dimethacrylate] here?
The initial viscosity was 28 Pa·s.
